We go through three compounds from patent EP0561913B1, “USE OF PYRIDINE DERIVATIVES IN THE TREATMENT OF OCULAR HYPERTENSION” (ALLERGAN, INC., priority 1990, dated 1992).

Series [1] deals with cat iris sphincter smooth muscle. The experiment in a line: In vitro contraction of isolated iris sphincter smooth muscle in organ bath. Conditions: for EC50: cumulative dose response, 37°C, read-out: ED50 (concentration that caused 50% of maximum contraction). The format is cell-based. The protocol: (§1) Iris sphincter and ciliary smooth muscles were excised from freshly enucleated cat eyes. The tissues were placed in an organ bath containing Tyrode's solution (composition in mM: NaCl 137, KCl 2.7, CaCl2 1.8, MgCl2 1.05, NaHCO3 11.9, NaH2PO4 0.42, D-glucose 5.6) at 37°C, aerated with 95% oxygen and 5% carbon dioxide. One end of the tissue was fastened to a hook in the bath and the other end was attached to a force displacement transducer connected to a polygraph. The tissues were allowed to equilibrate for 60 minutes under a load of 100-200 mg tension. […] Increasing concentrations of the test compound (0.1 - 1000 µM) were then added into the bath to generate cumulative dose response. […] Results were from three or more experiments expressed as mean ± S.E.

The test system of series [2] is rabbits. The experiment in a line: Pupil diameter (miosis), intracameral injection. As to the method: (§2) Pyridine-1,2,3,6-tetrahydro-5-(5-isoxazolyl)-1-methyl-ethanedioate ("test compound") or pilocarpine were applied either topically into the eyes of owl monkeys (200 µg in 10 µl) or intracamerally into the eye of rabbits (10 µg in 20 µl). Control animals were treated with a saline vehicle. Pupil diameter and IOP were measured for 0-6 hours. IOP was measured using pneumatometer (Digilab/ Biorad) and pupil diameter was measured using Optistick ruler (Allergan). Animals used in these studies had normal intraocular pressure.
(§3) Muscarinic activity was determined by treatment with atropine (muscarinic antagonist). In rabbits 5 µg atropine was coinjected with the test compounds and in owl monkey 5 µg atropine (10 µl) was applied 30 minutes before treatment with the test compound.
(§4) Intraocular pressure (mmHg) or pupil diameter (mm) were expressed as changes from time 0.

For series [3], the system named is owl monkeys. In words: In vivo study of intraocular pressure reducing activity, topical application. As to the method:
as §2, §3, §4

Series [4] relates to owl monkeys. In words: Pupil diameter (miosis), topical application. The protocol: as §2, §3, §4
In series [5] the test system is cat ciliary smooth muscle. In words: In vitro contraction of isolated ciliary smooth muscle in organ bath. The series is classed as cell-based. The following applies: for EC50: cumulative dose response, 37°C, read-out: ED50 (concentration that caused 50% of maximum contraction). The protocol: as §1
Series [6] concerns rabbits. The experiment in a line: In vivo study of intraocular pressure reducing activity, intracameral injection. As to the method: as §2, §3, §4
Series [7] relates to rabbits. Conditions: normotensive rabbits or humans, from literature; cited from earlier work.
[8] abbreviates: topical 5 µg/10 µl atropine, test compound 200 µg/10 µl.

The structures appear in SMILES notation. Entries after “also recorded” stand apart in the source; their conditions may differ. Read-outs that look alike come from different tables or passages of the source.

Turning to `CN1[C@@H]2CC[C@H]1C[C@@H](OC(=O)C(CO)c1ccccc1)C2` (some centres unmarked) [atropine], in series [1] (10 nM atropine, iris versus ciliary muscle), the “effect of atropine in inhibiting the response of the iris relative to the ciliary” value is 2.5 times. For the same compound, the “inhibition of test compound-induced contraction by atropine” value is “competitive inhibition” in series [1] (cat iris sphincter muscle, 10 nM atropine for 30 minutes before test compound) and “competitive inhibition” in series [5] (10 nM atropine for 30 minutes before test compound). Also, the “inhibition of miotic effect of the test compound by atropine” value in series [2] (5 µg atropine with test compound 10 µg/20 µl intracameral) and in series [4] (setting [8]) was “completely inhibited” each time. For the same compound, in series [3] (setting [8]), the “inhibition of IOP reducing effect of the test compound by atropine” value is recorded as “no inhibitory effect”. The “inhibition of IOP effect of the test compound by atropine” value in series [6] (rabbits, 5 µg/20 µl atropine coinjected with test compound 10 µg/20 µl) was “partial inhibition”; in series [6] (rabbits, topical 0.5% atropine solution every 2 hours (data not shown)), “no inhibitory effect”.

In the case of `CC[C@@H]1C(=O)OC[C@@H]1Cc1cncn1C` [pilocarpine, (3S,4R)-3-ethyl-4-{(1-methyl-1H-imidazol-5-yl)methyl}-3,4-dihydro-2(3H)-furanone], the “decrease in IOP” value in series [7] is listed as “little or no decrease”; in series [3] (topical 200 µg/10 µl, at 3 hours, effect decreased thereafter) it was “about 3 mmHg”. Further, the EC50 in series [1] (Felis catus, cat iris sphincter muscle) is 4 µM; in series [5] (Felis catus), 4 µM. Besides, the “effect on IOP” value in series [6] (normotensive rabbits, intracameral 10 µg/20 µl, result in words) is given as “no hypotensive effect; also recorded: slight hypertensive action”.

Take `CN1CCC=C(c2ccno2)C1.O=C(O)C(=O)O` [test compound, Pyridine-1,2,3,6-tetrahydro-5-(5-isoxazolyl)-1-methyl-ethanedioate]: the EC50 was 20 µM in series [1] (cat iris sphincter muscle) and 30 µM in series [5]. The miosis result in series [2] (intracameral 10 µg/20 µl, effect of pilocarpine greater than that of the test compound) was “caused miosis”. In addition, the “time of maximum miotic response” value in series [2] (intracameral 10 µg/20 µl, followed by recovery) stood at 0.5 h. For the same compound, the “maximum decrease in IOP” value in series [3] (topical 200 µg/10 µl, after 5 and 6 hours) was found to be 4 mmHg. For the same compound, the “duration of IOP reducing effect” value in series [3] (topical 200 µg/10 µl, experimental period of 6 hours) is greater than 6 h. The “miosis, decrease in pupil size” value in series [4] (topical 200 µg/10 µl, at 1 hour) came to 48%. Also, in series [4] (topical 200 µg/10 µl, within 3 to 6 hours), the “miosis, recovered to % of 0 time” value is on record as 15%. In addition, the “decrease in IOP” value in series [6] (normotensive rabbits, intracameral 10 µg/20 µl, 5 hours after administration, change from time 0) was determined as 6 mmHg. The “duration of IOP decreasing activity” value in series [6] (rabbits, intracameral 10 µg/20 µl, experimental period ended at 6 hours) was greater than 6 h.
